This is an account of results in patent US20240343704A1, “HALO-SUBSTITUTED AMINO PYRIDINE COMPOUNDS AS INHIBITORS OF THE HAEMATOPOIETIC PROGENITOR KINASE 1 (HPK1)” (priority 2021, published 2024).

Structures are written as SMILES.

This test has as its target T1, Recombinant (1-346) HPK1 (h) (Homo sapiens, UniProt Q92918).
T1 construct: Recombinant (1-346) HPK1 (h) is incubated with 8 mM MOPS pH 7.0
T1 sequence (Q92918 1-346): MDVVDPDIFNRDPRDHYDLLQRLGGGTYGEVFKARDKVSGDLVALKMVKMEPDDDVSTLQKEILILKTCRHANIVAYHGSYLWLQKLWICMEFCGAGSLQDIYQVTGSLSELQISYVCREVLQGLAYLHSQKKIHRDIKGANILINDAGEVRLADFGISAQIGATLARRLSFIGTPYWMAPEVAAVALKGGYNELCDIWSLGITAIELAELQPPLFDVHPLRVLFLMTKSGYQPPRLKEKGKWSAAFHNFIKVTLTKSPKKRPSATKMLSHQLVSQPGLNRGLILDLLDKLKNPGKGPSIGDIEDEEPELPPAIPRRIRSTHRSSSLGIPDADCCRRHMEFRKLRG
Put plainly: HPK1 Human STE Kinase Enzymatic Radiometric Assay. To be noted: read-out: HPK1 IC50 nM Range*. The test is classed as biochemical. As for the experimental part:
A stock solution of 10 mM of test compound is prepared in DMSO. The compound plate was prepared by 3-fold and 9-point serial dilutions. […] The reaction is initiated by The addition of the Mg/ATP mix. After incubation for 40 minutes at RT, the reaction is stopped by the addition of phosphoric acid to a concentration of 0.5%.
Consider `COC1CCN(Cc2cc(-c3cc(-c4ccc5c(c4)CCNC5=O)c(N)nc3F)ccc2C2CCOCC2)CC1` [I-540, 6-(2-amino-6-fluoro-5-(3-((4-methoxypiperidin-1-yl)methyl)-4-(tetrahydro-2H-pyran-4-yl)phenyl)pyridin-3-yl)-3,4-dihydroisoquinolin-1(2H)-one], for which the IC50 lay in the range of 11 to 100 nM.

On to `CN(C)Cc1cc(-c2cc(-c3cc4c(cc3F)C(=O)NCC4)c(N)nc2F)ccc1OCC1CC1` [I-507, 6-(2-amino-5-(4-(cyclopropylmethoxy)-3-((dimethylamino)methyl)phenyl)-6-fluoropyridin-3-yl)-7-fluoro-3,4-dihydroisoquinolin-1(2H)-one], for which the IC50 fell in the range of 11 to 100 nM.

Turning to `CN1CCC[C@H]1c1cccc(-c2cc(-c3ccc4c(c3)CCNC4=O)c(N)nc2F)c1` [I-443, (S)-6-(2-amino-6-fluoro-5-(3-(1-methylpyrrolidin-2-yl)phenyl)pyridin-3-yl)-3,4-dihydroisoquinolin-1(2H)-one], the IC50 fell in the range of 101 to 1000 nM.

As for `CN(C)Cc1cc(-c2cc(-c3cc4c(cc3F)C(=O)NCC4)c(N)nc2F)ccc1OCC(F)F` [I-556, 6-(2-amino-5-(4-(2,2-difluoroethoxy)-3-((dimethylamino)methyl)phenyl)-6-fluoropyridin-3-yl)-7-fluoro-3,4-dihydroisoquinolin-1(2H)-one], the IC50 lay within 11 to 100 nM.

Take `CN(C)Cc1cc(-c2cc(-c3cc4c(cc3F)C(=O)NCC4)c(N)nc2F)ccc1N1CCSCC1` [I-488, 6-(2-amino-5-(3-((dimethylamino)methyl)-4-thiomorpholinophenyl)-6-fluoropyridin-3-yl)-7-fluoro-3,4-dihydroisoquinolin-1(2H)-one]: the IC50 is 0.1 to 10 nM.

On to `COc1ccc(-c2cc(-c3ccc4c(c3)CCNC4=O)c(N)nc2F)cc1C#N` [I-632, 5-(6-amino-2-fluoro-5-(1-oxo-1,2,3,4-tetrahydroisoquinolin-6-yl)pyridin-3-yl)-2-methoxybenzonitrile], for which the IC50 lay within 11 to 100 nM.

For the molecule `COC1CCN(Cc2cc(-c3cc(-c4cc5c(cc4F)C(=O)NCC5)c(N)nc3F)ccc2C2CCOCC2)CC1` [I-541, 6-(2-amino-6-fluoro-5-(3-((4-methoxypiperidin-1-yl)methyl)-4-(tetrahydro-2H-pyran-4-yl)phenyl)pyridin-3-yl)-7-fluoro-3,4-dihydroisoquinolin-1(2H)-one], the IC50 is 11 to 100 nM.

Turning to `Cc1nc2cc(-c3cc(-c4ccc(N5C[C@@H](C)N(C)[C@@H](C)C5)cc4)c(F)nc3N)cc(F)c2c(=O)[nH]1` [I-501, 7-(2-amino-6-fluoro-5-(4-((3R,5S)-3,4,5-trimethylpiperazin-1-yl)phenyl)pyridin-3-yl)-5-fluoro-2-methylquinazolin-4(3H)-one], the concentration for half-maximal inhibition (IC50) lay within 11 to 100 nM.

For the molecule `Cc1cc2cc(-c3cc(-c4ccc(C5CCOCC5)c(CN(C)C)c4)c(F)nc3N)cc(F)c2c(=O)[nH]1` [I-504, 6-(2-amino-5-(3-((dimethylamino)methyl)-4-(tetrahydro-2H-pyran-4-yl)phenyl)-6-fluoropyridin-3-yl)-8-fluoro-3-methylisoquinolin-1(2H)-one], the half-inhibitory concentration (IC50) lay within 11 to 100 nM.

As to `Cc1c[nH]c(=O)c2c(F)cc(-c3cc(-c4ccc(N5CCN(C(C)C)CC5)cc4)c(F)nc3N)cc12` [I-571, 6-(2-amino-6-fluoro-5-(4-(4-isopropylpiperazin-1-yl)phenyl)pyridin-3-yl)-8-fluoro-4-methylisoquinolin-1(2H)-one], the IC50 was in the range of 0.1 to 10 nM.

Consider `CC(C)N1CCN(c2ccc(-c3cc(-c4cc5c(F)c[nH]c(=O)c5cc4F)c(N)nc3F)cc2)CC1` [I-547, 6-(2-amino-6-fluoro-5-(4-(4-isopropylpiperazin-1-yl)phenyl)pyridin-3-yl)-4,7-difluoroisoquinolin-1(2H)-one], for which the half-maximal inhibitory concentration (IC50) was 0.1 to 10 nM.

In the case of `Nc1nc(F)c(-c2ccc(N3CCN(CCCC(F)F)CC3)cc2)cc1-c1ccc2c(=O)[nH]cc(F)c2c1` [I-544, 6-(2-amino-5-(4-(4-(4,4-difluorobutyl)piperazin-1-yl)phenyl)-6-fluoropyridin-3-yl)-4-fluoroisoquinolin-1(2H)-one], the IC50 lay in the range of 0.1 to 10 nM.

As for `Nc1nc(F)c(-c2ccc(C3=CCOCC3)cc2C=O)cc1-c1cc2c(cc1F)C(=O)NCC2` [I-514, 2-(6-amino-2-fluoro-5-(7-fluoro-1-oxo-1,2,3,4-tetrahydroisoquinolin-6-yl)pyridin-3-yl)-5-(3,6-dihydro-2H-pyran-4-yl)benzaldehyde], the IC50 lay in the range of 101 to 1000 nM.

As to `COC1CCN(Cc2cc(-c3cc(-c4cc5c(cc4F)C(=O)NCC5)c(N)nc3F)ccc2N2CCOCC2)CC1` [I-511, 6-(2-amino-6-fluoro-5-(3-((4-methoxypiperidin-1-yl)methyl)-4-morpholinophenyl)pyridin-3-yl)-7-fluoro-3,4-dihydroisoquinolin-1(2H)-one], the IC50 lay within 11 to 100 nM.

`Cc1nc2cc(-c3cc(-c4ccc(N5CCN(C6CCC6)CC5)cc4)c(F)nc3N)ccc2c(=O)[nH]1` [I-472, 7-(2-amino-5-(4-(4-cyclobutylpiperazin-1-yl)phenyl)-6-fluoropyridin-3-yl)-2-methylquinazolin-4(3H)-one]: the IC50 is 0.1 to 10 nM.

Take `CC(C)N1CCN(c2ccc(-c3ccc(Nc4ccc5c(c4)CCNC5=O)nc3F)cc2)CC1` [I-639, 6-((6-fluoro-5-(4-(4-isoproylpiperazin-1-yl)phenyl)pyridin-2-yl)amino)-3,4-dihydroisoquinolin-1(2H)-one]: the IC50 is over 1000 nM.

On to `CN(C)Cc1cc(-c2cc(-c3cc(F)c4c(c3)CCNC4=O)c(N)nc2F)ccc1N1CCOCC1` [I-486, 6-(2-amino-5-(3-((dimethylamino)methyl)-4-morpholinophenyl)-6-fluoropyridin-3-yl)-8-fluoro-3,4-dihydroisoquinolin-1(2H)-one], for which the IC50 lay in the range of 0.1 to 10 nM.

For `Cc1nc2cc(-c3cc(-c4ccc(N5CCN(C6CCC6)CC5)cc4)c(F)nc3N)cc(F)c2c(=O)[nH]1` [I-473, 7-(2-amino-5-(4-(4-cyclobutylpiperazin-1-yl)phenyl)-6-fluoropyridin-3-yl)-5-fluoro-2-methylquinazolin-4(3H)-one], the half-maximal inhibitory concentration (IC50) was in the range of 0.1 to 10 nM.

Take `CCN(CC)Cc1cc(-c2cc(-c3ccc4c(c3)CCNC4=O)c(N)nc2F)ccc1N1CCOCC1` [I-615, 6-(2-amino-5-(3-((diethylamino)methyl)-4-morpholinophenyl)-6-fluoropyridin-3-yl)-3,4-dihydroisoquinolin-1(2H)-one]: the IC50 lay in the range of 0.1 to 10 nM.

As for `Cc1nc2cc(-c3cc(-c4ccc(N5CCOCC5)c(CN(C)C)c4)c(F)nc3N)ccc2c(=O)[nH]1` [I-474, 7-(2-amino-5-(3-((dimethylamino)methyl)-4-morpholinophenyl)-6-fluoropyridin-3-yl)-2-methylquinazolin-4(3H)-one], the IC50 is 11 to 100 nM.

Consider `Cc1nc2cc(-c3cc(-c4ccc(N5CCN(CCCC(F)F)CC5)cc4)c(F)nc3N)ccc2c(=O)[nH]1` [I-484, 7-(2-amino-5-(4-(4-(4,4-difluorobutyl)piperazin-1-yl)phenyl)-6-fluoropyridin-3-yl)-2-methylquinazolin-4(3H)-one], for which the IC50 was 0.1 to 10 nM.

Regarding `CN1CCC[C@H]1c1cc(-c2cc(-c3ccc4c(c3)CCNC4=O)c(N)nc2F)ccc1C1CCOCC1` [I-642, (S)-6-(2-amino-6-fluoro-5-(3-(1-methylpyrrolidin-2-yl)-4-(tetrahydro-2H-pyran-4-yl)phenyl)pyridin-3-yl)-3,4-dihydroisoquinolin-1(2H)-one], the IC50 was 11 to 100 nM.
